pKd: −log10 of the molar value.
Columns and labels:
[1] = tested on: H929 cells and primary CD138+ MM cells; assay: clonogenic or cellular recovery of MM cells after BTZ treatment; type: cell-based, human; settings: stroma co-culture, 1 μM for 5 days, then BTZ 2.5 nM
Procedure: FIG. 4A-B depicts the clonogenic recovery (CFU) of H929 cells (FIG. 4A) or cellular recovery of primary CD138+ MM cells from 3 different patient samples (FIG. 4B). MM cells were treated with bortezomib (BTZ; 2.5 nM) for 48 hours after being incubated for 5 days either in the absence of stroma (Liquid), with or without the pan-RAR inhibitor AGN (1 μM), or in the presence of BM mesenchymal cells (Stroma), with or without the CYP26 inhibitor R115 (1 μM) or the CYP26-resistant retinoid IRX (1 μM). Clonogenic or cellular recovery was normalized to each condition in the absence of BTZ.
(§1) Coculture experiments. 24-well plates were coated with 0.1% gelatin in PBS for 30 min at 37° C. The gelatin solution was removed, and the stromal cells were cultured overnight at a density of 5×10^4 cells/well to obtain a confluent monolayer. At that time, MM cell lines or primary MM cells (1×10^5 in 2 ml) were added to the stroma cultures. The stroma cocultures were incubated at 37° C. in RPMI containing 10% FCS, L-glutamine, and P/S, with or without AGN194310 (1 μM for 5 days), R115866 (1 μM for 5 days), IRX5183 (1 μM for 5 days), or BTZ (2.5 nM for 48 hr).
Clonogenic assays. After treatment, MM cells were collected, washed with PBS, and plated at a density of 5,000 cells/ml in 1 ml of 1.32% methylcellulose supplemented with 30% FBS, 10% BSA, L-glutamine, P/S, and 0.1 mM β-ME. Cells were plated in triplicate in 35-mm culture dishes, incubated at 37° C., and scored for the presence of colonies 14 days later.
A RA-low microenvironment induces BTZ resistance. To determine whether decreased retinoid signaling contributes to BTZ resistance within the BM niche, MM cell lines and MM CD138+ primary cells were incubated with BM stroma for 5 days, followed by BTZ treatment.

RARβ = biological target: T1, RARβ (Homo sapiens, UniProt P10826); assay: displacement assay, agonist binding affinity; settings: read-out: Binding Affinities for RARβ
T1 construct: cloned receptor RAR molecules are first loaded with radiolabeled all-trans-retinoic acid
T1 sequence (P10826 1-455): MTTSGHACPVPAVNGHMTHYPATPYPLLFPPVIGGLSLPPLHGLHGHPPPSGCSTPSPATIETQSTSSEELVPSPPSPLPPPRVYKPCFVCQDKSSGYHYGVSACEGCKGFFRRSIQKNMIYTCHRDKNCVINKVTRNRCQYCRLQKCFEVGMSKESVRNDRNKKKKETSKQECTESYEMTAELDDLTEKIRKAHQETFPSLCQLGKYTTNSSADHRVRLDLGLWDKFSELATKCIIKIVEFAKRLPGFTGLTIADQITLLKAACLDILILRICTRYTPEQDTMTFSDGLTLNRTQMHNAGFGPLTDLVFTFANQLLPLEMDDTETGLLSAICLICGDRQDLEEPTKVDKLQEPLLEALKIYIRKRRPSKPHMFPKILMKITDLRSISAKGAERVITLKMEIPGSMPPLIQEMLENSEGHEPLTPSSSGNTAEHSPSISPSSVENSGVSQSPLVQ
Procedure: Binding assays are performed using a classic competition assay format in which cloned receptor RAR molecules are first loaded with radiolabeled all-trans-retinoic acid […] and then the amount of radioactivity liberated with increasing concentration of test compound is measured.

RARα = assay: transactivation assay, agonist activity; settings: RARα versus RARβ and RARγ, FIG. 1
Text: Transactivation assays employ expression plasmids encoding the full length receptors RARα, RARβ, and RARγ. Reporter plasmids containing the herpes virus thymidine kinase promoter and the appropriate retinoic acid receptor response element (RAREs) are positioned upstream of an open coding region encoding firefly luciferase.

[2] = tested on: H929 cells and CD138+ primary MM cells; assay: qRT-PCR of B cell and PC markers in MM cells, liquid or BM stroma co-culture; type: cell-based, human
Procedure: FIG. 3A-H depicts the relative concentration of plasma markers BCL6 (FIG. 3A and E), BLIMP-1 (FIG. 3B and F), XBPS-1 (FIG. 3C and G), and CHOP (FIG. 3D and H) in multiple myeloma (MM) cell lines H929 (FIG. 3A-D) or CD138+ MM cells from three different patient samples (FIG. 3E-H) incubated for 5 days either in the absence of stroma (Liquid), with or without AGN (RA receptor antagonist AGN194310, 1 μM), or co-cultured with BM mesenchymal cells (Stroma), with or without R115 (CYP26 inhibitor R115866, 1 μM) or IRX (CYP26-resistant retinoid IRX5183, 1 μM). Expression in untreated liquid conditions was set at 1. Data are representative of 3 independent experiments with similar results and represent the mean ±SEM. *P≤0.05 and **P≤0.01, by repeated-measures 1-way ANOVA for determination of statistical significance between groups; P values were corrected for multiple comparisons using Dunnett's test. Ctrl, control; max, maximum.
as §1
qRT-PCR. Total RNA was extracted using the RNeasy Mini Kit (QIAGEN) according to the manufacturer's instructions. cDNA was synthesized by reverse transcription using the iScript cDNA Synthesis Kit (Bio-Rad). qRT-PCR was performed with iTaq SYBR Green Supermix (Bio-Rad) using sequence specific primers. Gene expression was normalized to GAPDH, and relative quantification was calculated using ΔΔCt. All experiments were performed in duplicate and run on the Bio-Rad CFX96 machine.
The BM microenvironment (also called “niche”) limits PC differentiation by modulating retinoid signaling. A population of MM progenitors, phenotypically similar to B cells, is intrinsically resistant to BTZ and contributes to MRD and relapse. To investigate whether the BM niche plays a role in determining the phenotype of MM cells, the mRNA expression of B cell and PC markers in MM H929 cell lines (FIG. 3A-D) and MM CD138+ primary cells (FIG. 3E-H) was analyzed following co-culture with mouse BM stroma using human-specific primers. […] In contrast, co-culture of MM cells with BM stroma decreased the mRNA expression of B lymphocyte-induced maturation protein 1 (BLIMP1) and spliced X box-binding protein 1 (XBP1s) (FIG. 3B, C, F, G), which are critical mediators of PC differentiation.
The BM niche regulates hematopoietic stem cell (HSC) differentiation by expressing the retinoid-inactivating enzyme CYP26. CYP26 enzymes were highly expressed in BM mesenchymal cells, while their expression was barely detectable in MM cells. Since retinoid signaling promotes PC differentiation and potentiates Ig secretion, it was determined whether stromal CYP26 is responsible for inducing a B cell phenotype in MM cells. To this end, co-culture conditions were treated with the CYP26 inhibitor R115866 (R115) or the CYP26-resistant RA receptor α-selective (RARα-selective) retinoid IRX5183 (IRX).

pKd (RARβ): < 5.00
Compound: CC1(C)CCC(C)(C)c2c1cc(C(=O)Nc1cc(F)c(C(=O)O)c(F)c1)c(O)c2Cl [IRX5183]
effect on stroma-induced BTZ resistance [1]: overcome
agonist activity (transactivation) (RARα): specifically activates RARα
expression of differentiation markers by qRT-PCR or flow cytometry ([2]; liquid conditions compared with BM stroma): induced comparable changes, irrespective of the presence or absence of BM stroma
mRNA expression of B cell and PC markers (BCL6, BLIMP1, XBP1s, CHOP) ([2]; stroma co-cultures, 1 μM for 5 days): restored all markers to levels comparable to those of liquid control conditions

Source: patent US11786555B2, “RAR selective agonists in combination with immune modulators for cancer immunotherapy” (IO THERAPEUTICS, INC., priority 2017, dated 2023)
